From patent publication US11878973B2, “Bicyclic compounds and their uses” (NOVARTIS AG, priority 2021, dated 2024)
Like-named read-outs stand apart in the source and are kept apart here.

Experiments:
[1] = test system: DLD1-WRN-KO cells; experiment: Proliferation assay DLD1-WRN-KO (CellTiterGlo, 96 hours; off-target effects)
[2] = target: WRN helicase (Homo sapiens (Human), UniProt Q14191); experiment: In vitro enzymatic activity assay on WRN helicase (DNA dependent ATPase assay, ADP-Glo); assay type: biochemical
How it was run: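 DNA-dependent ATPase activity was measured by ADP-Glo luminescent ADP detection after a 30-min room-temperature reaction. The reaction contained 10 nM WRN (residues N517-P1238), 0.2 nM FLAP26 and 300 µM ATP at pH 7.5 with 2 mM MgCl2. Compounds were tested as 10-point half-log series in duplicate; IC50 values are geometric means from at least two independent experiments.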

[3] = test system: SW48 cells; experiment: Proliferation assay SW48 (CellTiterGlo, 96 hours)
[4] = Homo sapiens, read-out: Proliferation Assay DLD1-WRN-KO (GI50)
[5] = geometric means of at least 2 determinations, read-out: WRN ATPase Activity (IC50)
[6] = Homo sapiens, SW48, read-out: Proliferation Assay SW48 (GI50)

Chain of WRN helicase (Q14191 517-1238): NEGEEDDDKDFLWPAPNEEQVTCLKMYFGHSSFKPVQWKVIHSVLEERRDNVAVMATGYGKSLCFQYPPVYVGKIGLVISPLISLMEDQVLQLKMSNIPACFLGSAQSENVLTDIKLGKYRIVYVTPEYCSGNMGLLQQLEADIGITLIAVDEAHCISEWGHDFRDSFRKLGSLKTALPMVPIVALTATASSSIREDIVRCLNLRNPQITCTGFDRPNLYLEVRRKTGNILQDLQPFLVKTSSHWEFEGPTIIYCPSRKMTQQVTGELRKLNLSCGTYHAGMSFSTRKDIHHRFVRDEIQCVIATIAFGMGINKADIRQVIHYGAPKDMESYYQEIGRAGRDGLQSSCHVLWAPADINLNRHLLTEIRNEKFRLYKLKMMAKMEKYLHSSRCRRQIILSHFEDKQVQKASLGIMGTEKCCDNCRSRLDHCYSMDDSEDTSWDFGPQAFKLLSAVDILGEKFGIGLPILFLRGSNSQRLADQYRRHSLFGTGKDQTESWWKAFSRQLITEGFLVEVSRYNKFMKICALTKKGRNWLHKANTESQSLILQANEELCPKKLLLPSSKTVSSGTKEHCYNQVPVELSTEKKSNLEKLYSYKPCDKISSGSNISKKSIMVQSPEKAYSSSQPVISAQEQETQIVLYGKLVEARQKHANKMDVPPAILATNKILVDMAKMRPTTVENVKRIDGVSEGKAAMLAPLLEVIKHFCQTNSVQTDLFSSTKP

Row | Structure (SMILES) | GI50 [1, 4] [nM] | IC50 [2, 5] [nM] | GI50 [3, 6] [nM] | GI50 ([1]; Homo sapiens, DLD-1, read-out: proliferation GI50 in DLD1 WRN-KO) [nM] | IC50 ([2]; read-out: WRN ATPase inhibition (IC50)) [nM] | GI50 ([3]; Homo sapiens, SW48, read-out: proliferation GI50 in SW48, as stated in text) [nM] | GI50 ([1]; read-out: Proliferation Assay DLD1-WRN-KO (GI50), DLD1-WRN-KO cell line, geometric means of at least 2 determinations) [nM] | GI50 ([3]; read-out: Proliferation Assay SW48 (GI50), SW48 cell line, geometric means of at least 2 determinations) [nM]
1 | CCc1c(N2CCN(C(=O)c3ncnc(C)c3O)CC2)c(=O)n2nc(C3=CCCCO3)nc2n1CC(=O)Nc1ccc(C(F)(F)F)nc1Cl [Example 28, N-(2-chloro-6-(trifluoromethyl)pyridin-3-yl)-2-(2-(3,4-dihydro-2H-pyran-6-yl)-5-ethyl-6-(4-(5-hydroxy-6-methylpyrimidine-4-carbonyl)piperazin-1-yl)-7-oxo-[1,2,4]triazolo[1,5-a]pyrimidin-4(7H)-yl)acetamide] | > 10000 | 130 | 100 |  |  |  |  | 
2 | CCc1c(N2CCN(C(=O)c3ncnc(C)c3O)C[C@H]2C)c(=O)n2nc(C3=CCOCC3)nc2n1CC(=O)Nc1ccc(C(F)(F)F)cc1Cl [Example 88, (R)—N-(2-chloro-4-(trifluoromethyl)phenyl)-2-(2-(3,6-dihydro-2H-pyran-4-yl)-5-ethyl-6-(4-(5-hydroxy-6-methylpyrimidine-4-carbonyl)-2-methylpiperazin-1-yl)-7-oxo-[1,2,4]triazolo[1,5-a]pyrimidin-4(7H)-yl)acetamide] | > 10000 | 370 | 760 |  |  |  |  | 
3 | CCc1c(N2CCN(C(=O)c3nccc(Cl)c3O)CC2)c(=O)n2nc(N3CCOCC3)nc2n1CC(=O)Nc1ccc(C(F)(F)F)cc1Cl [Example 1, 2-(6-(4-(4-chloro-3-hydroxypicolinoyl)piperazin-1-yl)-5-ethyl-2-morpholino-7-oxo-[1,2,4]triazolo[1,5-a]pyrimidin-4(7H)-yl)-N-(2-chloro-4-(trifluoromethyl)phenyl)acetamide] | > 10000 | 50 | 50 | > 10000 | 50 | 50 |  | 
4 | CCc1c(N2CCN(C(=O)c3ncc(C)c(F)c3O)CC2)c(=O)n2nc(C3=CCOCC3)nc2n1CC(=O)Nc1ccc(C(F)(F)F)cc1Cl [Example 97, N-(2-chloro-4-(trifluoromethyl)phenyl)-2-(2-(3,6-dihydro-2H-pyran-4-yl)-5-ethyl-6-(4-(4-fluoro-3-hydroxy-5-methylpicolinoyl)piperazin-1-yl)-7-oxo-[1,2,4]triazolo[1,5-a]pyrimidin-4(7H)-yl)acetamide] | > 10000 | 80 | 70 |  |  |  |  | 
5 | CCc1c(N2CCN(C(=O)c3ncccc3O)CC2)c(=O)n2nc(C3=CCN(CC(F)F)CC3)nc2n1CC(=O)Nc1ccc(C(F)(F)F)cc1C [Example 115, 2-(2-(1-(2,2-difluoroethyl)-1,2,3,6-tetrahydropyridin-4-yl)-5-ethyl-6-(4-(3-hydroxypicolinoyl)piperazin-1-yl)-7-oxo-[1,2,4]triazolo[1,5-a]pyrimidin-4(7H)-yl)-N-(2-methyl-4-(trifluoromethyl)phenyl)acetamide] | > 10000 | 170 | 200 |  |  |  |  | 
6 | CCc1c(N2CCN(C(=O)c3nc(C)ncc3O)CC2)c(=O)n2nc(C3=CCOCC3)nc2n1CC(=O)Nc1ccc(C(F)(F)F)cc1C [Example 68, 2-(2-(3,6-dihydro-2H-pyran-4-yl)-5-ethyl-6-(4-(5-hydroxy-2-methylpyrimidine-4-carbonyl)piperazin-1-yl)-7-oxo-[1,2,4]triazolo[1,5-a]pyrimidin-4(7H)-yl)-N-(2-methyl-4-(trifluoromethyl)phenyl)acetamide] | > 10000 | 120 | 270 |  |  |  |  | 
7 | Cc1c(N2CCN(C(=O)c3ncccc3O)CC2)c(=O)n2nc(N3CC4CC(C3)O4)nc2n1CC(=O)Nc1ccc(C(F)(F)F)cc1F [Example 22, 2-(2-(6-oxa-3-azabicyclo[3.1.1]heptan-3-yl)-6-(4-(3-hydroxypicolinoyl)piperazin-1-yl)-5-methyl-7-oxo-[1,2,4]triazolo[1,5-a]pyrimidin-4(7H)-yl)-N-(2-fluoro-4-(trifluoromethyl)phenyl)acetamide] | > 10000 | 600 | 2630 |  |  |  |  | 
8 | CCc1c(N2CCN(C(=O)c3ncccc3O)CC2)c(=O)n2nc(C3=CC[C@H](OC)CC3)nc2n1CC(=O)Nc1ccc(C(F)(F)F)cc1C (single isomer, unassigned) [Example 80b, ((R)-2-(5-ethyl-6-(4-(3-hydroxypicolinoyl)piperazin-1-yl)-2-(4-methoxycyclohex-1-en-1-yl)-7-oxo-[1,2,4]triazolo[1,5-a]pyrimidin-4(7H)-yl)-N-(2-methyl-4-(trifluoromethyl)phenyl)acetamide) or ((S)-2-(5-ethyl-6-(4-(3-hydroxypicolinoyl)piperazin-1-yl)-2-(4-methoxycyclohex-1-en-1-yl)-7-oxo-[1,2,4]triazolo[1,5-a]pyrimidin-4(7H)-yl)-N-(2-methyl-4-(trifluoromethyl)phenyl)acetamide)] |  | 80 |  |  |  |  | > 10000 | 60
9 | CCc1c(N2CCN(C(=O)c3ncccc3O)CC2)c(=O)n2nc(N3CC4CC(C3)O4)nc2n1CC(=O)Nc1ccc(C(F)(F)F)cc1C [Example 21, 2-(2-(6-oxa-3-azabicyclo[3.1.1]heptan-3-yl)-5-ethyl-6-(4-(3-hydroxypicolinoyl)piperazin-1-yl)-7-oxo-[1,2,4]triazolo[1,5-a]pyrimidin-4(7H)-yl)-N-(2-methyl-4-(trifluoromethyl)phenyl)acetamide] | > 10000 | 180 | 1070 |  |  |  |  | 
10 | CCc1c(N2CCN(C(=O)c3ncccc3O)CC2)c(=O)n2nc(C3=COCCO3)nc2n1CC(=O)Nc1ccc(C(F)(F)F)nc1Cl [Example 27, N-(2-chloro-6-(trifluoromethyl)pyridin-3-yl)-2-(2-(5,6-dihydro-1,4-dioxin-2-yl)-5-ethyl-6-(4-(3-hydroxypicolinoyl)piperazin-1-yl)-7-oxo-[1,2,4]triazolo[1,5-a]pyrimidin-4(7H)-yl)acetamide] | > 10000 | 130 | 270 |  |  |  |  | 
11 | CCc1c(N2CCN(C(=O)c3ncccc3O)CC2)c(=O)n2nc(-c3ccc(C)nc3)nc2n1CC(=O)Nc1ccc(C(F)(F)F)cc1C [Example 77, 2-(5-ethyl-6-(4-(3-hydroxypicolinoyl)piperazin-1-yl)-2-(6-methylpyridin-3-yl)-7-oxo-[1,2,4]triazolo[1,5-a]pyrimidin-4(7H)-yl)-N-(2-methyl-4-(trifluoromethyl)phenyl)acetamide] | > 10000 | 210 | 380 |  |  |  |  | 
12 | CCc1c(N2CCN(C(=O)c3ncnc(C)c3O)CC2)c(=O)n2nc(C3=CCOCC3)nc2n1CC(=O)Nc1ccc(C(F)(F)F)cc1F [Example 107, 2-(2-(3,6-dihydro-2H-pyran-4-yl)-5-ethyl-6-(4-(5-hydroxy-6-methylpyrimidine-4-carbonyl)piperazin-1-yl)-7-oxo-[1,2,4]triazolo[1,5-a]pyrimidin-4(7H)-yl)-N-(2-fluoro-4-(trifluoromethyl)phenyl)acetamide] | > 10000 | 50 | 100 |  |  |  |  | 
13 | CCc1c(N2CCN(C(=O)c3ncccc3O)CC2)c(=O)n2nc(N3CCOCC3)nc2n1CC(=O)Nc1cc(C(F)(F)F)c(Cl)cc1C [Example 12, N-(4-chloro-2-methyl-5-(trifluoromethyl)phenyl)-2-(5-ethyl-6-(4-(3-hydroxypicolinoyl)piperazin-1-yl)-2-morpholino-7-oxo-[1,2,4]triazolo[1,5-a]pyrimidin-4(7H)-yl)acetamide] | > 10000 | 130 | 550 |  |  |  |  | 
14 | CCc1c(N2CCN(C(=O)c3ncccc3O)CC2)c(=O)n2nc(C3=CCC(OC)CC3)nc2n1CC(=O)Nc1ccc(C(F)(F)F)cc1C (racemic) [Example 80, rac-2-(5-ethyl-6-(4-(3-hydroxypicolinoyl)piperazin-1-yl)-2-(4-methoxycyclohex-1-en-1-yl)-7-oxo-[1,2,4]triazolo[1,5-a]pyrimidin-4(7H)-yl)-N-(2-methyl-4-(trifluoromethyl)phenyl)acetamide] | > 10000 | 60 | 70 |  |  |  |  | 
15 | CCc1cc(C)c(NC(=O)Cn2c(CC)c(N3CCN(C(=O)c4ncccc4O)CC3)c(=O)n3nc(C4=CCOCC4)nc23)cc1Cl [Example 104, N-(5-chloro-4-ethyl-2-methylphenyl)-2-(2-(3,6-dihydro-2H-pyran-4-yl)-5-ethyl-6-(4-(3-hydroxypicolinoyl)piperazin-1-yl)-7-oxo-[1,2,4]triazolo[1,5-a]pyrimidin-4(7H)-yl)acetamide] | > 10000 | 70 | 50 |  |  |  |  | 
16 | Cc1ccc(O)c(C(=O)N2CCN(c3c(C)n(CC(=O)Nc4ccc(C(F)(F)F)cc4)c4nc(C5=CCOCC5)nn4c3=O)CC2)n1 [Example 91, 2-(2-(3,6-dihydro-2H-pyran-4-yl)-6-(4-(3-hydroxy-6-methylpicolinoyl)piperazin-1-yl)-5-methyl-7-oxo-[1,2,4]triazolo[1,5-a]pyrimidin-4(7H)-yl)-N-(4-(trifluoromethyl)phenyl)acetamide] | > 10000 | 80 | 320 |  |  |  |  | 
17 | CCc1c(N2CCN(C(=O)c3ncnc(C)c3O)CC2)c(=O)n2nc(C3=CCN(C(=O)OC(C)(C)C)CC3)nc2n1CC(=O)Nc1ccc(C(F)(F)F)cc1C [Example 130, tert-butyl 4-(5-ethyl-6-(4-(5-hydroxy-6-methylpyrimidine-4-carbonyl)piperazin-1-yl)-4-(2-((2-methyl-4-(trifluoromethyl)phenyl)amino)-2-oxoethyl)-7-oxo-4,7-dihydro-[1,2,4]triazolo[1,5-a]pyrimidin-2-yl)-3,6-dihydropyridine-1 (2H)-carboxylate] | > 10000 | 100 | 50 |  |  |  |  | 
